Where “and” joins values, the source holds several entries; their conditions need not be identical. Equal values may be shown once.
Molecular target: Porcine pancreatic elastase (PPE) (Sus scrofa, UniProt P00772)
Assay: Porcine pancreatic elastase (PPE) enzyme inhibitory assay
Type: biochemical
Conditions: for Average % inhibition: average of three; for Inhibition Rate (%): single determination
Experimental: The elastase inhibitory activity of certain plant extracts was evaluated in vitro using Porcine pancreatic elastase (PPE) enzyme inhibitory assay as described by Cannel et al. (1988) with some modifications. The assay was performed in 0.2 M Tris-HCL buffer (pH 8.0). Porcine pancreatic elastase was dissolved to make a 100 unit stock solution in sterile water. The substrate N-Succinyl-Ala-Ala-Ala-p-nitroanilide (AAAPVN) was dissolved in buffer. The plant extracts were incubated with the enzyme for 25 minutes before adding the substrate to begin the reaction. […] EGCG was used as a positive control, and tris-HCl was used as the blank.
Maximum Velocities (Vmax) were taken at a wavelength of 410 nm for 25 minutes at 30 second intervals. Percentage inhibitions were calculated by the following equation: […]
where Vmax(sample) is the velocity of the sample extracts and Vmax(control) is the velocity of the assay using the buffer instead of inhibitor (sample).

Porcine pancreatic elastase (PPE), sequence (P00772 27-266): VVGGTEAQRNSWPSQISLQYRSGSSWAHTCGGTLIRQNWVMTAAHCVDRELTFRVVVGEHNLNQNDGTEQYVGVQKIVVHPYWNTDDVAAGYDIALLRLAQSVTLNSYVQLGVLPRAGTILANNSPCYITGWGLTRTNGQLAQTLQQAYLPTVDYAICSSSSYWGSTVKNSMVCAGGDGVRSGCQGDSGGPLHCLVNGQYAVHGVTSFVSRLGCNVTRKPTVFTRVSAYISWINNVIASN

O=C(O[C@@H]1Cc2c(O)cc(O)cc2O[C@@H]1c1cc(O)c(O)c(O)c1)c1cc(O)c(O)c(O)c1 [EGCG, epigallocatechin gallate]
Average % inhibition (31.25 μg/ml): 4.80%
Inhibition Rate (%) (31.25 μg/ml): 6.76% and 1.06% and 6.58%
Average % inhibition (62.5 μg/ml): 15.57%
Inhibition Rate (%) (62.5 μg/ml): 20.43% and 14.78% and 11.52%
Average % inhibition (125 μg/ml): 36.25%
Inhibition Rate (%) (125 μg/ml): 39.69% and 35.13% and 33.94%
Average % inhibition (250 μg/ml): 41.56%
Inhibition Rate (%) (250 μg/ml): 45.23% and 41.13% and 38.32%
Average % inhibition (500 μg/ml): 43.47%
Inhibition Rate (%) (500 μg/ml): 45.20% and 41.64% and 43.58%
Average % inhibition (1000 μg/ml): 48.97%
Inhibition Rate (%) (1000 μg/ml): 49.48% and 47.89% and 49.56%
Average % inhibition (2000 μg/ml): 52.78%
Inhibition Rate (%) (2000 μg/ml): 52.32% and 52.75% and 53.28%
